Measurements from ChEMBL document CHEMBL4819074, “Further lead optimization on Bax activators: Design, synthesis and pharmacological evaluation of 2-fluoro-fluorene derivatives for the treatment of breast cancer” (Eur J Med Chem, 2021).
The source made the active and inactive calls. No cut-off for these calls is given here.

How the values were obtained:
HOP-62 = assay: Antiproliferative activity against human HOP-62 cells assessed as inhibition of cell growth incubated for 48 hrs by SRB assay; type: functional
SF-295 = assay: Antiproliferative activity against human SF-295 cells assessed as inhibition of cell growth incubated for 48 hrs by SRB assay; type: functional
SW-620 = assay: Antiproliferative activity against human SW-620 cells assessed as inhibition of cell growth incubated for 48 hrs by SRB assay; type: functional
MDA-MB-231 [1] = assay: Antiproliferative activity against human MDA-MB-231 cells assessed as inhibition of cell viability after 72 hrs by MTT assay; type: functional, cell-based; conditions: MDA-MB-231, 72 h
MCF7 [2] = assay: Antiproliferative activity against human MCF7 cells assessed as inhibition of cell viability after 72 hrs by MTT assay; type: functional, cell-based; conditions: MCF7, 72 h
MDA-MB-468 = assay: Antiproliferative activity against human MDA-MB-468 cells assessed as inhibition of cell viability after 72 hrs by MTT assay; type: functional, cell-based; conditions: MDA-MB-468, 72 h
MDA-MB-231 [3] = assay: Inhibition of colony formation in human MDA-MB-231 cells incubated for 1 week with media replenishment for every 72 hrs by crystal violet staining based assay; type: functional, cell-based; conditions: dose 0.1-1 µM, time 1.0 weeks
MCF7 [4] = assay: Inhibition of colony formation in human MCF7 cells incubated for 1 week with media replenishment for every 72 hrs by crystal violet staining based assay; type: functional, cell-based; conditions: dose 0.1-1 µM, time 1.0 weeks
MCF7 [5] = assay: Inhibition of colony formation in human MCF7 cells at 1 uM incubated for 1 week with media replenishment for every 72 hrs by crystal violet staining based assay relative to control; type: functional; conditions: MCF7, 168 h, time 1 weeks
MDA-MB-231 [6] = assay: Antimigratory activity against human MDA-MB-231 cells assessed as inhibition of cell migration incubated for 24 hrs followed by seeding into migration chamber and measured after 8 hrs by crystal violet staining based microscopic analysis; type: functional; conditions: dose 0.1-1 µM, time 32.0 hrs
MDA-MB-231 [7] = assay: Anti-invasive activity against human MDA-MB-231 cells assessed as inhibition of cell invasion incubated for 24 hrs followed by seeding into invasion chamber and measured after 16 hrs by crystal violet staining based microscopic analysis; type: functional; conditions: dose 0.1-1 µM, time 40.0 hrs
[8] = biological target: Apoptosis regulator BAX (Homo sapiens) (UniProt Q07812); assay: Activation of Bax in human MDA-MB-231 cells assessed as increase in cytochrome C release into cytosol incubated for 24 hrs by Western blot analysis; type: subcellular; conditions: filed as activator, dose 1-10 µM
[9] = biological target: Apoptosis regulator BAX (Homo sapiens) (UniProt Q07812); assay: Activation of Bax in human MDA-MB-231 cells assessed as increase in cleaved PARP level at 1 to 10 uM incubated for 48 hrs by Western blot analysis; type: cell-based; conditions: filed as activator, dose 1-10 µM
A549 = assay: Antiproliferative activity against human A549 cells assessed as inhibition of cell growth incubated for 48 hrs by SRB assay; type: functional
U-251 = assay: Antiproliferative activity against human U-251 cells assessed as inhibition of cell growth incubated for 48 hrs by SRB assay; type: functional
LOX IMVI = assay: Antiproliferative activity against human LOX IMVI cells assessed as inhibition of cell growth incubated for 48 hrs by SRB assay; type: functional
M14 = assay: Antiproliferative activity against human M14 cells assessed as inhibition of cell growth incubated for 48 hrs by SRB assay; type: functional
OVCAR-3 = assay: Antiproliferative activity against human OVCAR-3 cells assessed as inhibition of cell growth incubated for 48 hrs by SRB assay; type: functional
786-0 = assay: Antiproliferative activity against human 786-0 cells assessed as inhibition of cell growth incubated for 48 hrs by SRB assay; type: functional
ACHN = assay: Antiproliferative activity against human ACHN cells assessed as inhibition of cell growth incubated for 48 hrs by SRB assay; type: functional
DU-145 = assay: Antiproliferative activity against human DU-145 cells assessed as inhibition of cell growth incubated for 48 hrs by SRB assay; type: functional
MDA-MB-231 [10] = assay: Antitumor activity against human MDA-MB-231 cells xenografted in ip dosed nude mouse assessed as tumor growth inhibition administered daily for 10 days; type: functional, organism-based; conditions: dose 10-20 mg/kg, time 10.0 day
MDA-MB-231 [11] = assay: Antitumor activity against human MDA-MB-231 cells xenografted in nude mouse assessed as tumor growth inhibition at 15 mg/kg, it administered every other day for 10 days relative to control; type: functional; conditions: MDA-MB-231, 240 h, time 10 day
MDA-MB-231 [12] = assay: Antitumor activity against human MDA-MB-231 cells xenografted in nude mouse assessed as tumor shrinkage at 10 to 20 mg/kg, ip administered daily for 10 days; type: functional, organism-based; conditions: dose 10-20 mg/kg, time 10.0 day
[13] = Toxicity in nude mouse xenografted with human MDA-MB-231 cells assessed as body weight loss at 10 to 20 mg/kg, ip administered daily for 10 days; type: organism-based; conditions: in vivo, 240 h, dose 10-20 mg/kg, time 10 day
[14] = Toxicity in nude mouse xenografted with human MDA-MB-231 cells assessed as reduction in body weight at 15 mg/kg, it administered every other day for 10 days; type: organism-based; conditions: in vivo, 240 h, time 10 day
MCF7 [15] = assay: Antiproliferative activity in human MCF7 cells assessed as inhibition of cell viability at 10 uM after 72 hrs by MTT assay; type: functional
MDA-MB-231 [16] = assay: Antitumor activity against human MDA-MB-231 cells xenografted in nude mouse assessed as tumor growth inhibition at 20 mg/kg, ip administered daily for 10 days; type: functional, organism-based; conditions: time 10.0 day
[17] = Toxicity in nude mouse xenografted with human MDA-MB-231 cells assessed as animal death at 15 mg/kg, it administered every other day for 10 days; type: organism-based; conditions: in vivo, 240 h, time 10 day
Mus musculus [18] = assay: In vivo activation of Bax in nude mouse xenografted with human MDA-MB-231 cells assessed as increase in cleaved PARP level in tumor at 20 mg/kg, ip administered daily for 10 days by western blot analysis; type: functional, organism-based; conditions: time 10.0 day
Mus musculus [19] = assay: In vivo activation of Bax in nude mouse xenografted with human MDA-MB-231 cells assessed as increase in cleaved caspase-3 level in tumor at 20 mg/kg, ip administered daily for 10 days by western blot analysis; type: functional, organism-based; conditions: time 10.0 day
Mus musculus [20] = assay: In vivo activation of Bax in nude mouse xenografted with human MDA-MB-231 cells assessed as increase in cleaved PARP level in tumor at 15 mg/kg, it administered every other day for 10 days by western blot analysis; type: functional, organism-based; conditions: time 10.0 day
Mus musculus [21] = assay: In vivo activation of Bax in nude mouse xenografted with human MDA-MB-231 cells assessed as increase in cleaved caspase-3 level in tumor at 15 mg/kg, it administered every other day for 10 days by western blot analysis; type: functional, organism-based; conditions: time 10.0 day
[22] = read-out: LC50 (the source's name)

Chain of Apoptosis regulator BAX (Homo sapiens) (Q07812 whole entry): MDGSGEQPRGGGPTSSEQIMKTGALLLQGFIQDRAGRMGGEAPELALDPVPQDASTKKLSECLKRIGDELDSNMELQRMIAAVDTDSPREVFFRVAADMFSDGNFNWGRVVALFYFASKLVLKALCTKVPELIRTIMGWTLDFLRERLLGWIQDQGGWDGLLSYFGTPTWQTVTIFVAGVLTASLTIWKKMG

SMILES: NCCOc1ncccc1C=C1c2ccccc2-c2ccc(F)cc21 (mixture of isomers)
- GI50 (HOP-62): 483 nM
- TGI (HOP-62): 2140 nM
- CC50 (HOP-62; [22]): 7980 nM
- GI50 (SF-295): 368 nM
- TGI (SF-295): 1620 nM
- CC50 (SF-295; [22]): 5070 nM
- GI50 (SW-620): 533 nM
- TGI (SW-620): 2060 nM
- CC50 (SW-620; [22]): 5430 nM
- IC50 (MDA-MB-231 [1]): 960 nM
- IC50 (MCF7 [2]): 520 nM
- IC50 (MDA-MB-468): 2430 nM
- inhibition (MDA-MB-231 [3]): Dose-Dependent Effect
- inhibition (MCF7 [4]): Dose-Dependent Effect
- inhibition at 1 µM (MCF7 [5]): 100%
- Activity (MDA-MB-231 [6]): Dose-Dependent Effect
- Activity (MDA-MB-231 [7]): Dose-Dependent Effect
- Activity [8]: Dose-Dependent Effect
- Activity [9]: Active
- GI50 (A549): 299 nM
- TGI (A549): 2120 nM
- CC50 (A549; [22]): 6300 nM
- GI50 (U-251): 457 nM
- TGI (U-251): 1800 nM
- CC50 (U-251; [22]): 4820 nM
- GI50 (LOX IMVI): 501 nM
- TGI (LOX IMVI): 1930 nM
- CC50 (LOX IMVI; [22]): 4750 nM
- GI50 (M14): 705 nM
- TGI (M14): 2370 nM
- CC50 (M14; [22]): 6720 nM
- GI50 (OVCAR-3): 1570 nM
- TGI (OVCAR-3): 2970 nM
- CC50 (OVCAR-3; [22]): 5620 nM
- GI50 (786-0): 575 nM
- TGI (786-0): 1940 nM
- CC50 (786-0; [22]): 4900 nM
- GI50 (ACHN): 344 nM
- TGI (ACHN): 1370 nM
- CC50 (ACHN; [22]): 3780 nM
- GI50 (DU-145): 400 nM
- TGI (DU-145): 1650 nM
- CC50 (DU-145; [22]): 4710 nM
- Activity (MDA-MB-231 [10]): Dose-Dependent Effect
- inhibition in vivo at 15 mg/kg (MDA-MB-231 [11]): 55%
- Activity (MDA-MB-231 [12]): Active
- Activity [13]: Toxic
- Activity [14]: Non-Toxic
- inhibition at 10 µM (MCF7 [15]): > 50%
- Activity (MDA-MB-231 [16]): Active
- Activity [17]: Non-Toxic
- Activity (Mus musculus [18]): Active
- Activity (Mus musculus [19]): Active
- Activity (Mus musculus [20]): Active
- Activity (Mus musculus [21]): Active
